According to patent publication US9958439B2, “Carbohydrate detection” (RICHTER LIFE SCIENCE DEVELOPMENT AB, priority 2012, dated 2018):
Where two headings read alike, the source gives them in different places.

How the values were obtained:
[1] = for RFU change (Correlation analysis): probe-specific excitation λ, emission 545 nm; for Gradient Parameters (gradient of regression line) / Quality of Gradient: linear regression
Method in brief: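 LCO probes at 3 μM mixed with serial two-fold dilutions of carbohydrate in dH2O (10–0.039 or 5–0.019 mg/ml, depending on carbohydrate), in triplicate. Excitation scanned 300–500 nm or fixed per probe (λmax or lowest background), emission at 545 nm. Detection taken as reproducible λmax/RFU shift vs no-carbohydrate control; RFU regressed linearly on concentration.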

[2] = Method in brief: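 3 μM of each LCO probe was added to serial two-fold carbohydrate dilutions in water (10–0.039 or 5–0.019 mg/ml). Excitation spectra were scanned 300–500 nm with emission at 545 nm, in triplicate. Detection was defined as a reproducible shift in λmax and/or RFU versus negative control, with linear regression of RFU against concentration.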
[3] = for RFU change (Correlation analysis): probe-specific excitation λ, emission 545 nm; for carbohydrate can be detected and/or differentiated by the LCO: conclusion from change in signal magnitude and/or shift in λmax; for Gradient Parameters (gradient of regression line) / Linear relationship / Quality of Gradient: linear regression
Method in brief: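 LCO probes at 3 μM mixed with serial twofold carbohydrate dilutions in dH2O (10–0.039 or 5–0.019 mg/ml, depending on carbohydrate). Excitation scanned 300–500 nm, emission read at 545 nm; detection defined as reproducible shift in λmax and/or RFU relative to negative control, with linear regression of RFU against concentration.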

[4] = remark: listed apart in the source
Method in brief: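 LCO probes at 3 μM mixed with serial two-fold carbohydrate dilutions in water (10–0.039 or 5–0.019 mg/ml), run in triplicate. Excitation scanned 300–500 nm with emission at 545 nm; detection based on reproducible λmax or RFU shift against the no-carbohydrate control, with linear regression of RFU on concentration.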

[5] = for RFU change (Correlation analysis) / RFU change (Signal deviation with increasing [Carbohydrate]) / λmax change: 3 μM probe; for RFU change (Correlation analysis): probe-specific excitation λ, emission 545 nm; for RFU change (Signal deviation with increasing [Carbohydrate]) / λmax change: spectral analysis, Excitation 300-500, Emission 545; for carbohydrate can be detected and/or differentiated by the LCO: conclusion from change in signal magnitude and/or shift in λmax; for Gradient Parameters (gradient of regression line) / Linear relationship / Quality of Gradient: linear regression
Method in brief: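 Each LCO probe at 3 μM was added to two-fold serial dilutions of carbohydrate in dH2O (10–0.039 mg/ml for β-1,3-glucan, cellulose, chitin; 5–0.019 mg/ml for the others), run in triplicate. Excitation spectra were scanned 300–500 nm with emission at 545 nm. Detection was a reproducible λmax and/or RFU shift versus negative control, with linear regression of RFU against concentration.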

[6] = remark: listed apart in the source
Method in brief: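 LCO probes (3 μM) were added to serial two-fold dilutions of carbohydrate suspensions in dH2O, with excitation scanned 300–500 nm and emission at 545 nm. Detection was a reproducible λmax and/or RFU change versus no-carbohydrate control. RFU was regressed linearly against concentration at the λmax or the lowest-background excitation.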

[7] = Cellulobiose 5-0.019 mg/ml, 3 μM probe, spectral analysis, Excitation 300-500, Emission 545
[8] = cellulobiose concentration vs RFU
[9] = Chondroitin Sulfate A 5-0.019 mg/ml, 3 μM probe, spectral analysis, Excitation 300-500, Emission 545
[10] = Chondroitin Sulfate A concentration vs RFU, linear regression
[11] = Glycogen 5-0.019 mg/ml, 3 μM probe, spectral analysis, Excitation 300-500, Emission 545
[12] = glucose concentration vs RFU, linear regression
[13] = β-1,3-glucan concentration vs RFU
[14] = sodium alginate concentration vs RFU, linear regression

Cl.Cl.N=C(N)NCCC[C@H](NC(=O)Cc1cc(-c2cccs2)sc1-c1ccc(-c2sc(-c3cccs3)cc2CC(=O)N[C@@H](CCCNC(=N)N)C(=O)O)s1)C(=O)O [pHTA-Arg, penta Hydrogen Thiophene Acetic acid Arginine]
RFU change (Correlation analysis) ([1]; Amylose 5-0.019 mg/ml, 3 μM probe): Unclear
RFU change (Signal deviation with increasing [Carbohydrate]) ([1]; Amylose 5-0.019 mg/ml, 3 μM probe, spectral analysis, Excitation 300-500, Emission 545): Unclear
RFU change (Correlation analysis) ([1]; Cellulobiose 5-0.019 mg/ml, 3 μM probe): Unclear
RFU change (Signal deviation with increasing [Carbohydrate]) [1, 7]: Unclear
λmax change [1, 7]: No change
Gradient Parameters (gradient of regression line) ([1]; amylose concentration vs RFU): −28.4 ± 21.6
Quality of Gradient ([1]; amylose concentration vs RFU): Horizontal
Gradient Parameters (gradient of regression line) [1, 8]: −1.30 ± 12.9
Quality of Gradient [1, 8]: Horizontal
Sensitivity ([1]; to amylose): No
Sensitivity ([1]; to cellulobiose): No
RFU change (Correlation analysis) ([2]; Chondroitin Sulfate A 5-0.019 mg/ml, 3 μM probe, probe-specific excitation λ, emission 545 nm): Increases
RFU change (Signal deviation with increasing [Carbohydrate]) [2, 9]: Increases
λmax change [2, 9]: No change
Gradient Parameters (gradient of regression line) [2, 10]: 143.4 ± 10.01
Linear relationship [2, 10]: Significant
Quality of Gradient [2, 10]: Positive
carbohydrate can be detected and/or differentiated by the LCO ([2]; Chondroitin sulfate A, conclusion from change in signal magnitude and/or shift in λmax): can be detected and/or differentiated
Sensitivity ([2]; to Chondroitin Sulfate A): Yes
RFU change (Correlation analysis) ([3]; Glycogen 5-0.019 mg/ml, 3 μM probe): Increases
RFU change (Signal deviation with increasing [Carbohydrate]) [3, 11]: Increases
λmax change [3, 11]: Redshift
carbohydrate can be detected and/or differentiated by the LCO ([3]; Glycogen): can be detected and/or differentiated
RFU change (Correlation analysis) ([3]; Heparin 5-0.019 mg/ml, 3 μM probe): Increases
RFU change (Signal deviation with increasing [Carbohydrate]) ([3]; Heparin 5-0.019 mg/ml, 3 μM probe, spectral analysis, Excitation 300-500, Emission 545): Increases
carbohydrate can be detected and/or differentiated by the LCO ([3]; Heparin): can be detected and/or differentiated
Gradient Parameters (gradient of regression line) ([3]; glycogen concentration vs RFU): 72.8 ± 13.4
Linear relationship ([3]; glycogen concentration vs RFU): Significant
Quality of Gradient ([3]; glycogen concentration vs RFU): Positive
Gradient Parameters (gradient of regression line) ([3]; heparin concentration vs RFU): 29.3 ± 8.6
Linear relationship ([3]; heparin concentration vs RFU): Significant
Quality of Gradient ([3]; heparin concentration vs RFU): Positive
Sensitivity ([3]; to glycogen): Yes
Sensitivity ([3]; to heparin): Yes
RFU change (Correlation analysis) ([4]; Glucose 5-0.019 mg/ml, 3 μM probe, probe-specific excitation λ, emission 545 nm): Unclear
RFU change (Signal deviation with increasing [Carbohydrate]) ([4]; Glucose 5-0.019 mg/ml, 3 μM probe, spectral analysis, Excitation 300-500, Emission 545): Increases
Gradient Parameters (gradient of regression line) [4, 12]: 17.9 ± 38.1
Quality of Gradient [4, 12]: Horizontal
Sensitivity ([4]; to glucose): No
RFU change (Correlation analysis) ([5]; Cellulose 10-[…]): Increase
RFU change (Signal deviation with increasing [Carbohydrate]) ([5]; Cellulose 10-[…]): Increase
λmax change ([5]; Cellulose 10-[…]): Redshift
carbohydrate can be detected and/or differentiated by the LCO ([5]; Cellulose): can be detected and/or differentiated
RFU change (Correlation analysis) ([5]; Chitin 10-[…]): Increases
RFU change (Signal deviation with increasing [Carbohydrate]) ([5]; Chitin 10-[…]): Increases
λmax change ([5]; Chitin 10-[…]): Redshift
carbohydrate can be detected and/or differentiated by the LCO ([5]; Chitin): can be detected and/or differentiated
Gradient Parameters (gradient of regression line) ([5]; cellulose concentration vs RFU): 194.0 ± 29.9
Linear relationship ([5]; cellulose concentration vs RFU): Significant
Quality of Gradient ([5]; cellulose concentration vs RFU): Positive
Gradient Parameters (gradient of regression line) ([5]; chitin concentration vs RFU): 338.2 ± 19.4
Linear relationship ([5]; chitin concentration vs RFU): Significant
Quality of Gradient ([5]; chitin concentration vs RFU): Positive
Sensitivity ([5]; to cellulose): Yes
Sensitivity ([5]; to chitin): Yes
Sensitivity ([5]; to β-1,3-glucan): Yes
carbohydrate can be detected and/or differentiated by the LCO ([5]; β-1,3-Glucan): can be detected and/or differentiated
RFU change (Correlation analysis) ([5]; β-1,3-glucan 10-[…]): Increase
RFU change (Signal deviation with increasing [Carbohydrate]) ([5]; β-1,3-glucan 10-[…]): Increase
Gradient Parameters (gradient of regression line) [5, 13]: 119.1 ± 16.69
Quality of Gradient [5, 13]: Positive
RFU change (Correlation analysis) ([6]; Sodium alginate 5-0.019 mg/ml, 3 μM probe, probe-specific excitation λ, emission 545 nm): Increases
RFU change (Signal deviation with increasing [Carbohydrate]) ([6]; Sodium alginate 5-0.019 mg/ml, 3 μM probe, spectral analysis, Excitation 300-500, Emission 545): Increases
carbohydrate can be detected and/or differentiated by the LCO ([6]; Sodium alginate, conclusion from change in signal magnitude and/or shift in λmax): can be detected and/or differentiated
Gradient Parameters (gradient of regression line) [6, 14]: 78.6 ± 18.6
Linear relationship [6, 14]: Significant
Quality of Gradient [6, 14]: Positive
Sensitivity ([6]; to sodium alginate): Yes
